These results are taken from US20080015224A1, “Nitroxide superoxide dismutase mimetics to treat extracellular superoxide dismutase deficiencies” (priority 2006, published 2008).

For data set [1], the system named is mesenteric resistance arteries (MRAs) from EC-SOD −/− and +/+ mice. Kind of data set: Contraction of isolated mesenteric resistance arteries (myograph). The procedure:
FIG. 19: Responses of mouse isolated mesenteric resistance vessles to endothelin-1: comparison of EC-SOD +/+ with −/−. (A) Contraction to endothelin-1, (B) Superoxide production with endothelin-1. Mean±SEM values (n=6-8 per group). Response to endothelin-1 in vessels incubated for 20 min with vehicle, tempol (10^−4 M), PEG-SOD (100 units·ml^−1), and catalase (300 units·ml^−1). Compared to vehicle, ***, p<0.005.
(§1) Reactive oxygen spice (ROS) and endothelin-1 (ET-1) contribute to angiotensin-induced hypertension. We used isolated mesenteric resistance arteries (MRAs) from EC-SOD knockout (−/−) mice (n=10) and EC-SOD wild type (+/+) mice (n=10), as a model to investigate the hypothesis that microvascular ET-1 and superoxide anion (O2.^−) interact to enhance contractility. Tension and O2.^− were quantitated in real time in dihydroethidium (DHE)-loaded MRAs in a myograph equipped with a dual-emission photon detection fluorescence system to measure ethidium (Eth): DHE ratio (E/D) as a direct readout of O2.^− activity. […] PEG-SOD normalized augmented ET-1 contraction (64±4% vs 71±3%; p=ns) and prevent an increase in E/D ratio in MRAs from −/− (0.6±0.5 vs 0.5±0.8, p=ns). In summary, ET-1 generates microvascular O2.^− that enhances its vasoconstrictive action.

Data set [2] shares this test system. As to the kind of experiment: Superoxide as ethidium:DHE ratio (E/D) in dihydroethidium-loaded mesenteric resistance arteries.
Source text: as §1
A current study contrasts the responses to endothelin-1 (ET-1) in mesenteric resistance vessels from EC-SOD (−/−) and (+/+) mice. […] Parallel studies of vascular superoxide in dihydroethidium-loaded vessels show enhanced conversion to ethidium, indicating enhanced superoxide formation, in vessels from EC-SOD −/−mice. […] We conclude that in the model system of SOD deficiency caused by gene deletion of EC-SOD in the mouse, tempol can correct enhanced contractions and enhanced oxidative stress. It is thereby envisioned as being effective in preventing hypertension and cardiovascular disease.

For data set [3], the system named is spontaneously hypertensive rat (SHR). As to the kind of experiment: Acute antihypertensive response (MAP, HR) to graded intravenous doses in anesthetized SHR. The format is in vivo. The conditions noted are these: for acute change in MAP and HR: graded intravenous doses (nitroxides 17-270 μmol/kg; SOD 34-540 U/kg); for ED50 (sensitivity) for changes in MAP and HR: intravenous. The method, then:
Experiments were approved by the Georgetown University Animal Care and Use Committee. Male SHR weighing 250-350 g (Taconic, Germantown, N.Y.) were anesthetized with thiobutabarbital (Inactin; Sigma, St. Louis, Mo.) (10 mg/100 g) after halothane (Halocarbon Laboratories, River Edge, N.J.) induction. Rats received 0.9% NaCl at 2 ml/h IV up to the time of receiving drugs to maintain euvolemia. A femoral artery was cannulated with polyethelene (PE)-50 tubing connected to a digital blood pressure analyzer (Micro-Med, Louisville, Ky.). Animals were equilibrated for 45 min. Thereafter, a nitroxide (17 μmol/kg) was infused intravenously over 10 s. The mean arterial pressure (MAP) and heart rate (HR) were recorded over the first 5 min and at 10 and 15 min. This was followed by doses of 54, 72, 174, and 270 μmol/kg under similar conditions. The same protocol was followed with each nitroxide: T, 4-oxo-tempo (OT), 4-amino-tempo (AT), 3-carboxy-peroxyl (3-CTPY) (Aldrich, Milwaukee, Wis.), 3-carbomyl-proxyl (3-CP) (Sigma), and 4-trimethylammonium-2,2,6,6,-tetramethylpiperidine-1-oxyl iodide (CAT-1) (Molecular Probes, Eugene, Oreg.) (FIG. 3). Doses of bovine Cu/Zn SOD (MW 32,500; Oxis Research, Portland, Oreg.) were selected that had equivalent SOD mimetic activity in vitro to the doses of T used for intravenous studies: 34, 110, 140, 260, 350, and 540 U/kg. SOD injection followed a similar protocol to the nitroxides and was compared with vehicle-injected rats. Additional rats received injections of previously boiled SOD as a further control group. Six rats were studied in each group.
The mean±SE changes in MAP and HR were calculated from the individual dose-response relations. The responsiveness was the maximum effect, and the sensitivity was the expected dose for ED50. Data were analyzed by ANOVA with post hoc testing by the Dunnett test, where appropriate. Statistical significance was taken as P<0.05.

The conditions of data set [4]: cited from earlier work.
The subject of data set [5] is O2−. generated by xanthine plus xanthine oxidase. As to the kind of experiment: Inhibition of O2−. generated by xanthine-xanthine oxidase in vitro (SOD mimetic activity, lucigenin chemiluminescence). The format is biochemical. The settings on record: for Maximum inhibition, %: O2−. generated by xanthine-xanthine oxidase in vitro, means ± SE, 5 studies; for O2−. generated by a xanthine-xanthine oxidase reaction extinguished: tested in PBS at 10^−4 M. The procedure: (§2) The SOD activities of Ns were evaluated in vitro for their efficacy in dampening O2^−. generated by xanthine (25 μmol/l) plus xanthine oxidase (9 IU/ml). Their lipid solubility was assessed by shaking the Ns in a 50:50 mixture of PBS (Ambion, Austin, Tex.) and chloroform (CHCl3; EM Science, Gibbstown, N.J.), taking an aliquot of the PBS phase, evaporating the CHCl3phase to dryness, reconstituting it in PBS, and assessing the SOD activities in the two solutions. O2^−. was assessed by chemiluminescence with 5 μM lucigenin (AutoLumatPlus LB 953; EG&G, Berthold, Germany). The reduction in the stable peak value for chemiluminescence for each N, relative to vehicle, defined the SOD mimetic activity.
SOD activity by the nitroxides was assessed in vitro (Table 1). […] The ratio of the activity that partitioned into CHCl3 compared with PBS was examined.

Data set [6] is described as follows: Lipid solubility: partition of SOD activity between CHCl3 and PBS. It is filed as physicochemical. The settings on record: 50:50 PBS and chloroform. The procedure:
as §2

The conditions of data set [7]: measured previously in the literature; cited from earlier work.
The next data set deals with cell membranes. The conditions noted are these: cited from earlier work.
Data set [8] concerns EC-SOD +/+ and −/− mice. As to the kind of experiment: MAP of conscious mice by telemetry during subcutaneous Ang II infusion. The conditions noted are these: for MAP during Ang II infusion: 400 ng/kg per minute subcutaneously, 2 weeks; for Change in MAP with Ang II (mmHg) / MAP on day 12 of Ang II (mmHg): conscious, telemetry. It is filed as in vivo, mouse. An excerpt: For the first series, mice were instrumented with indwelling radiotelemeters (DSI) connected to a cather in a carotid artery and placed within the abdomen 2 weeks before placement of osmotic minipumps as described previously (Kawada N, et al. 2002 J Am Soc Nephrol 13 :2860-2868). Mice were anesthetized with isoflurane (1.0 to 1.5% in 100% O2) before insertion of telemeters and allowed to recover from the surgery for 12 days before the start of BP recording. Basal recordings of MAP and heart rate (HR) were measured continuously by telemetry for 3 days. Thereafter, mice were anesthetized with isoflurane for insertion of osmotic minipumps (Direct Corp) to deliver Ang II (400 ng^−1 kg^−1 per minute) or vehicle (Veh) subcutaneously for 2 weeks. An additional group received a higher pressor rate of Ang II infusion (1000 ng/kg^−1 min^−1, SC). The mean values for 24-hour periods are reported. For subsequent series, mice were prepared without placement of telemeters and Ang II was infused only at the slow pressor rate.

Data set [9] relates to EC-SOD +/+ and −/− mice. Kind of data set: MAP of anesthetized mice (direct arterial cannulation) during Ang II infusion. It is filed as in vivo, mouse. The settings on record: 400 ng·kg^−1·min^−1. The procedure:
Cannulae were placed in the jugular vein (for infusion of fluids and renal function markers), the femoral artery (for direct measurement of MAP and HR), and the bladder (for the collection of urine). A tracheostomy was performed to permit free, uninterrupted respiration of room air. [^3H]-Inulin was infused at 0.1 μCi^−1 hr^−1 for the measurement of glomerular filtration rate. [^14C]-Para-amino hippurate (PAH) was infused at 0.2 μCi^−1 hr^−1. Blood was collected from the femoral artery and renal vein at the end of the collection period to measure hematocrit and renal PAH extraction. Renal plasma flow (RPF) was calculated from the clearance of PAH factored by its renal extraction. Renal blood flow was calculated from RPF factored by (1-hematocrit). Renal vascular resistance (RVR) was calculated from MAP factored by RBF. In separate groups, plasma was obtained, and the aorta and kidneys were harvested and prepared for further analysis.

[10] abbreviates: EC-SOD (+/+), 400 ng·kg^−1·min^−1.
The mark [11] stands for this setting: EC-SOD (+/+), 1000 ng·kg^−1·min^−1.
The mark [12] stands for this setting: EC-SOD (−/−), 400 ng·kg^−1·min^−1.
[13] abbreviates: EC-SOD (−/−), 1000 ng·kg^−1·min^−1.

Entries after “also recorded” stand apart in the source; their conditions may differ. Where no end group is shown, it is not given here.

In the case of “endothelin-1 (CSCSSLMDKECVYFCHLDIIW; ends and bridges not checked; cysteine pairing not given here; UniProt P05305 53-73, looked up) [ET-1, vasoconstrictor peptide used to contract mesenteric resistance arteries]”, the ET-1 induced contraction in [1] (MRAs from EC-SOD +/+ mice) was 66±5%; in data set [1] (MRAs from EC-SOD −/− mice), 100±3%. The “E/D ratio (ethidium:DHE) with ET-1” value in data set [2] (MRAs from EC-SOD +/+ mice) came to 0.5±0.8; in data set [2] (MRAs from EC-SOD −/− mice) it was 3.7±0.5.
Regarding “Cu/Zn SOD: bovine Cu/Zn SOD (MW 32,500; Oxis Research)”, the “delay of MAP lowering versus vehicle” value in [3] (graded intravenous doses) was 90 to 110 min. Further, the “acute change in MAP and HR” value in data set [3] (listed as SOD) is “no acute effect; also recorded: did not”. In data set [4] (45 min after injection), the “injected SOD associated with the kidney” value is roughly 10%. Moreover, the plasma half time in data set [4] (after intravenous administration) is recorded as 6 min.
As for `CC1(C)CC(=O)CC(C)(C)N1[O]` [OT, 4-oxo-tempo], in data set [5], the “Maximum inhibition, %” value was determined as 62 ± 2 % and the “O2−. generated by a xanthine-xanthine oxidase reaction extinguished” value (“O2−. generated” below) is “significantly lower fraction”. In data set [6], the “ratio of the activity that partitioned into CHCl3 compared with PBS (partition ratio)” value is reported as “greatest partition ratio”. In data set [3] (graded intravenous doses), the “maximal reduction in MAP (comparison between compounds)” value (from here on “maximal reduction in MAP”) was “significantly more modest reductions” and the “reduction in HR (comparison between compounds)” value is listed as “smaller”. For the same compound, in data set [3], the “acute change in MAP and HR” value is “graded reductions; also recorded: decreased MAP and HR acutely”; the “ED50 (sensitivity) for changes in MAP and HR” value (shortened to “ED50 (sensitivity) for changes”) is “highest ED50s”. In addition, in data set [7], the “redox midpoint potential E1/2” value was 913 mV.
Regarding `CC1(C)CC([N+](C)(C)C)CC(C)(C)N1[O].[I-]` [CAT-1, 4-trimethylammonium-2,2,6,6,-tetramethylpiperidine-1-oxyl iodide], in data set [5], the “Maximum inhibition, %” value is recorded as 42 ± 2 % and the “O2−. generated” value is “significantly lower fraction”. In [3] (graded intravenous doses), the “maximal reduction in MAP” value is recorded as “significantly more modest reductions”. Also, in data set [3], the “acute change in MAP and HR” value was “graded reductions; also recorded: decreased MAP and HR acutely”; the “ED50 (sensitivity) for changes” value was “lowest ED50”. Further, the “redox midpoint potential E1/2” value in [7] is on record as “significantly higher values still”. Also, the permeation of cells entry in the data set on cell membranes is reported as “does not permeate cells”.
Turning to `CNC[C@H](O)c1cccc(O)c1` [Phenylephrine], in data set [1] (MRAs from both groups), the “Phenylephrine-induced contractions, EC-SOD −/− versus +/+” value is reported as “similar”. Also, in [2] (MRAs from both groups), the “E/D ratio with phenylephrine” value was “did not change”.
Turning to “angiotensin II (DRVYIHPF; Angiotensin-2; UniProt P01019 25-32, looked up) [Ang II, pressor peptide infused subcutaneously by osmotic minipump]”, the “MAP during Ang II infusion” value with EC-SOD +/+ and −/− mice [8] (EC-SOD +/+) is on record as 125±3 mm Hg; with EC-SOD +/+ and −/− mice [8] (EC-SOD −/−), 124±3 mm Hg. The “Change in MAP with Ang II (mmHg)” value in the data set with EC-SOD +/+ and −/− mice [8] (setting [10]) is given as “+24.4 ± 3.45 mmHg”; in the data set on EC-SOD +/+ and −/− mice [8] (setting [11]), “+35.7 ± 6.5 mmHg”; with EC-SOD +/+ and −/− mice [8] (setting [12]) it was “+16.7 ± 4.42 mmHg”; in the data set with EC-SOD +/+ and −/− mice [8] (setting [13]), “+30.7 ± 3.3 mmHg”. Further, the “MAP on day 12 of Ang II (mmHg)” value in the data set on EC-SOD +/+ and −/− mice [8] (setting [10]) was found to be 134.6 ± 3.3 mmHg; in the data set with EC-SOD +/+ and −/− mice [8] (setting [11]), 149.1 ± 4.3 mmHg; with EC-SOD +/+ and −/− mice [8] (setting [12]), 132.5 ± 4.1 mmHg; in the data set with EC-SOD +/+ and −/− mice [8] (setting [13]), 149.9 ± 5.4 mmHg; in the data set with EC-SOD +/+ and −/− mice [9] (EC-SOD (+/+)), 92.1 ± 3.0 mmHg; in the data set on EC-SOD +/+ and −/− mice [9] (EC-SOD (−/−)) it was 98.4 ± 2.6 mmHg.
As to `CC1(C)CC(N)CC(C)(C)N1[O]` [AT, 4-amino-2,2,6,6-tetramethylpiperidine-1-oxyl], in data set [5], the “Maximum inhibition, %” value was determined as 88 ± 2 % and the “O2−. generated” value was determined as 88%. In addition, the “maximal reduction in MAP” value in [3] (graded intravenous doses) was “greatest reductions in MAP”. Besides, in data set [3], the “acute change in MAP and HR” value was “graded reductions; also recorded: decreased MAP and HR acutely”; the “ED50 (sensitivity) for changes” value is “highest ED50s”. Further, the “redox midpoint potential E1/2” value in [7] is on record as 820 mV.
With `CC1(C)CC(C(N)=O)C(C)(C)N1[O]` (stereo not shown) [Compound 3-CP, 3-carbomoyl-proxyl], in data set [5], the “Maximum inhibition, %” value worked out at 82 ± 1 % and the “O2−. generated” value is “significantly lower fraction”. The “acute change in MAP and HR” value in data set [3] was “ineffective; also recorded: did not; also recorded: does not reduce BP in vivo”.
